This passage reports CC50 and IC50 results from ChEMBL document CHEMBL4680271, “COVID-19: Drug Targets and Potential Treatments” (J Med Chem, 2020).

Data set [1] is described as follows: Cytotoxicity against African green monkey Vero E6 cells by CCK8 assay. In kind it is cell-based, Vero C1008. Particulars: chlorocebus sabaeus.
Data set [2] can be described thus: Inhibition of SARS-CoV2 3C-like protease expressed in Escherichia coli BL21 (DE3) cells using Mca-AVLQSGFR-K(Dnp)K as substrate by fluorescence method. The arrangement: species or system Severe acute respiratory syndrome coronavirus 2.
Data set [3] in a line: Inhibition of SARS-CoV 3C-like protease expressed in Escherichia coli BL21 using Dabcyl-KTSAVLQSGFRKME-Edans fluorogenic peptide as substrate by fluorometric assay. The arrangement: species or system Severe acute respiratory syndrome-related coronavirus.
A short description of data set [4]: Inhibition of MERS-CoV 3C-like protease expressed in Escherichia coli BL21 using Dabcyl-KTSAVLQSGFRKME-Edans fluorogenic peptide as substrate by fluorometric assay. The arrangement: species or system Middle East respiratory syndrome-related coronavirus.
The nature of data set [5]: Inhibition of SARS-CoV2 3C-like protease expressed in Escherichia coli BL21-Gold (DE3) cells using Dabcyl-KTSAVLQSGFRKM-E(Edans)-NH2 as substrate by FRET-based cleavage assay. The arrangement: species or system Severe acute respiratory syndrome coronavirus 2.
Data set [6] in a line: Inhibition of SARS-CoV 3C-like protease expressed in African green monkey Vero cells using SAVLQSGFRK as substrate by dual luciferase reporter assay. In kind it is cell-based, Severe acute respiratory syndrome-related coronavirus.
Data set [7] is described as follows: Inhibition of C-terminal 6His-tagged SARS-CoV 3C-like protease expressed in Escherichia coli BL21 (DE3) CodonPlus-RIL using 12-mer fluorogenic peptide Dabcyl-KNSTLQSGLRKE-Edans as substrate incubated for 60 mins by fluorescence method. The arrangement: species or system Severe acute respiratory syndrome-related coronavirus.
The nature of data set [8]: Inhibition of C-terminal 6His-tagged SARS-CoV papain-like protease expressed in Escherichia coli BL21 (DE3) CodonPlus-RIL using Arg-Leu-Arg-Gly-Gly-AMC as substrate by fluorescence method. The arrangement: species or system Severe acute respiratory syndrome-related coronavirus.

pIC50: −log10 of the molar value. Bounds are passed on as bounds.

In data set [1], `NC(=O)c1nc(F)c[nH]c1=O` gave a CC50 of more than 400 µM.

For the molecule `Cn1sc(=O)n(Cc2ccccc2)c1=O`, the pIC50 in data set [2] was 5.60.

With `O=C[C@H](CC1CCNC1=O)NC(=O)[C@@H](Cc1ccccc1)NC(=O)/C=C/c1ccc(Cl)cc1F` (stereo not given in full), the pIC50 in data set [3] was 6.70; in data set [4], 5.93.

In data set [5], `CC(C)(C)CC(=O)Nc1cccc([C@@H](CC2CC2)C(=O)N[C@@H](CC2CCNC2=O)C(=O)C(=O)NCc2ccccc2)c1O` (stereo not given in full) showed a pIC50 of 6.17.

With `COc1ccc(C(=O)/C=C/c2ccc(O)cc2)c(O)c1CC(O)C(C)=O` (stereo not given), the pIC50 in data set [6] was 5.15.

As for `O=C(/C=C/CCc1ccc(O)c(O)c1)CCc1ccc(O)c(O)c1` [DEHYDROHIRSUTANONOL], the pIC50 in data set [7] is 4.44; in data set [8] it was 5.39.

In data set [1], `Nc1nc2c(ncn2CCC(CO)CO)c(=O)[nH]1` [PENCICLOVIR] displayed a CC50 of more than 400 µM.

The molecule `NC(=O)c1ncn([C@@H]2O[C@H](CO)[C@@H](O)[C@H]2O)n1` [RIBAVIRIN] came in with a CC50 in data set [1] of more than 400 µM.
